In brackets after ≈: the same amount, converted by molar mass.
Legend:
[1] = system: MRSA ATCC BAA 1556 (USA300); experiment: In-house broth microdilution MIC screening; type: cell-based, Staphylococcus aureus; settings: Staphylococcus aureus; broth microdilution; read-out: MIC Value, MRSA ATCC BAA 1556
MSSA ATCC 29213 = experiment: In-house broth microdilution MIC screening; type: cell-based; settings: Staphylococcus aureus; broth microdilution; read-out: MIC Value, MSSA ATCC 29213
[2] = Single-dose nebulized nose-only inhalation PK in healthy rats; type: in vivo, rat; settings: male, Sprague Dawley, rat, in vivo
Description: Rats were acclimated in the study facility for approximately 1 week prior to study start. Ten or eleven rats per cohort were loaded into the chamber at the time of dosing. […] An additional airflow set to 6 liters/min was admixed with the nebulizer output to further direct the test articles to the animals. […] The remaining port on the chamber was fit with an aerosol sampling filter for dose determination over a 5 min sampling period. The average dose delivered to the nose of each animal was calculated using an algorithm that was previously described ([49]). […] Animals were euthanized for collection of whole lungs and plasma at time points ranging from immediate postdose (IPD; approximately 30 min after dosing for nebulization) to 168 h postdose (7 days). Drugs were extracted from tissues using customized protein precipitation methods with an appropriate internal standard for each compound and transferred for analysis by LC-MS/MS (Sciex API4500 or API6500+ mass spectrometer [Sciex, Framingham, MA]). GraphPad Prism (La Jolla, CA) was used for statistical analyses and data plotting. […] The data were applied to a noncompartmental analysis after extravascular dosing input and fit to a linear up/log down model. Statistical analysis of in vitro intracellular and biofilm activity was based on a two-way ANOVA with a Bonferroni post test. In vivo statistical analysis was based on the Kolmogorov-Smirnov test.

SMILES	MIC [1] [µg/mL]	MIC (MSSA ATCC 29213) [µg/mL]	further results
CCCCCCCCCCCCCC(=O)OCCNC1(C)CC(OC2C(Oc3c4cc5cc3Oc3ccc(cc3Cl)C(O)C3NC(=O)C(NC(=O)C5NC(=O)C(CC(N)=O)NC(=O)C(NC(=O)C(CC(C)C)NC)C(O)c5ccc(c(Cl)c5)O4)c4ccc(O)c(c4)-c4c(O)cc(O)cc4C(C(=O)O)NC3=O)OC(CO)C(O)C2O)OC(C)C1O (stereo not drawn) [RV88]	0.125 (≈ 0.0734 µM)	0.125 (≈ 0.0734 µM)	Pulmonary dose [2]: 0.12 mg/kg; Time to full conversion to hydrolysis product in the lung [2]: ≤ 24 h; Drug lung level at 120 h ([2]; 120 h): 1.5%; Primary hydrolysis byproduct lung level at 120 h ([2]; 120 h): 71%; Kp ([2]; inhaled or intranasal): 1350; Lung AUC0-∞ ([2]; inhaled or intranasal): 360 µg·h/g; Lung Cmax ([2]; inhaled or intranasal): 26 µg/g; Lung t1/2 ([2]; inhaled or intranasal): 21 h; Plasma Cmax ([2]; inhaled or intranasal): 20 ng/mL
CNC(CC(C)C)C(=O)NC1C(=O)NC(CC(N)=O)C(=O)NC2C(=O)NC3C(=O)NC(C(=O)NC(C(=O)O)c4cc(O)cc(O)c4-c4cc3ccc4O)C(O)c3ccc(c(Cl)c3)Oc3cc2cc(c3OC2OC(CO)C(O)C(O)C2OC2CC(C)(NCCO)C(O)C(C)O2)Oc2ccc(cc2Cl)C1O (stereo not drawn) [RV80]	2 (≈ 1.34 µM)	1.5 (≈ 1 µM)	Lung retention of primary hydrolysis by-product [2]: sustained in the lung throughout the course of the 120 h experiments
CCCCCCCCCC(=O)NCCNC1(C)CC(OC2C(Oc3c4cc5cc3Oc3ccc(cc3Cl)C(O)C3NC(=O)C(NC(=O)C5NC(=O)C(CC(N)=O)NC(=O)C(NC(=O)C(CC(C)C)NC)C(O)c5ccc(c(Cl)c5)O4)c4ccc(O)c(c4)-c4c(O)cc(O)cc4C(C(=O)O)NC3=O)OC(CO)C(O)C2O)OC(C)C1O (stereo not drawn) [RV56]	0.063 (≈ 0.0383 µM)	0.063 (≈ 0.0383 µM)	
CCCCCCCCCCOC(=O)CNC1(C)CC(OC2C(Oc3c4cc5cc3Oc3ccc(cc3Cl)C(O)C3NC(=O)C(NC(=O)C5NC(=O)C(CC(N)=O)NC(=O)C(NC(=O)C(CC(C)C)NC)C(O)c5ccc(c(Cl)c5)O4)c4ccc(O)c(c4)-c4c(O)cc(O)cc4C(C(=O)O)NC3=O)OC(CO)C(O)C2O)OC(C)C1O (stereo not drawn) [RV55]	0.25 (≈ 0.152 µM)	0.25 (≈ 0.152 µM)	
CCCCCCCCCCCCCCCCOC(=O)CNC1(C)CC(OC2C(Oc3c4cc5cc3Oc3ccc(cc3Cl)C(O)C3NC(=O)C(NC(=O)C5NC(=O)C(CC(N)=O)NC(=O)C(NC(=O)C(CC(C)C)NC)C(O)c5ccc(c(Cl)c5)O4)c4ccc(O)c(c4)-c4c(O)cc(O)cc4C(C(=O)O)NC3=O)OC(CO)C(O)C2O)OC(C)C1O (stereo not drawn) [RV128]	1 (≈ 0.577 µM)	1 (≈ 0.577 µM)	
CCCCCCCCCCCCCCCC(=O)OCCNC1(C)CC(OC2C(Oc3c4cc5cc3Oc3ccc(cc3Cl)C(O)C3NC(=O)C(NC(=O)C5NC(=O)C(CC(N)=O)NC(=O)C(NC(=O)C(CC(C)C)NC)C(O)c5ccc(c(Cl)c5)O4)c4ccc(O)c(c4)-c4c(O)cc(O)cc4C(C(=O)O)NC3=O)OC(CO)C(O)C2O)OC(C)C1O (stereo not drawn) [RV89]	1 (≈ 0.577 µM)	0.5 (≈ 0.289 µM)	
CCCCCCCCNC(=O)CNC1(C)CC(OC2C(Oc3c4cc5cc3Oc3ccc(cc3Cl)C(O)C3NC(=O)C(NC(=O)C5NC(=O)C(CC(N)=O)NC(=O)C(NC(=O)C(CC(C)C)NC)C(O)c5ccc(c(Cl)c5)O4)c4ccc(O)c(c4)-c4c(O)cc(O)cc4C(C(=O)O)NC3=O)OC(CO)C(O)C2O)OC(C)C1O (stereo not drawn) [RV121]	0.25 (≈ 0.154 µM)	0.25 (≈ 0.154 µM)	
CCCCCCCCCCCCCC(=O)NCCNC1(C)CC(OC2C(Oc3c4cc5cc3Oc3ccc(cc3Cl)C(O)C3NC(=O)C(NC(=O)C5NC(=O)C(CC(N)=O)NC(=O)C(NC(=O)C(CC(C)C)NC)C(O)c5ccc(c(Cl)c5)O4)c4ccc(O)c(c4)-c4c(O)cc(O)cc4C(C(=O)O)NC3=O)OC(CO)C(O)C2O)OC(C)C1O (stereo not drawn) [RV92]	0.031 (≈ 0.0182 µM)	0.023 (≈ 0.0135 µM)	
CCCCCCCCCCCCOC(=O)CNC1(C)CC(OC2C(Oc3c4cc5cc3Oc3ccc(cc3Cl)C(O)C3NC(=O)C(NC(=O)C5NC(=O)C(CC(N)=O)NC(=O)C(NC(=O)C(CC(C)C)NC)C(O)c5ccc(c(Cl)c5)O4)c4ccc(O)c(c4)-c4c(O)cc(O)cc4C(C(=O)O)NC3=O)OC(CO)C(O)C2O)OC(C)C1O (stereo not drawn) [RV126]	2 (≈ 1.19 µM)	2 (≈ 1.19 µM)	
CNC(CC(C)C)C(=O)NC1C(=O)NC(CC(N)=O)C(=O)NC2C(=O)NC3C(=O)NC(C(=O)NC(C(=O)O)c4cc(O)cc(O)c4-c4cc3ccc4O)C(O)c3ccc(c(Cl)c3)Oc3cc2cc(c3OC2OC(CO)C(O)C(O)C2OC2CC(C)(NCC(=O)O)C(O)C(C)O2)Oc2ccc(cc2Cl)C1O (stereo not drawn) [RV101]	> 128	> 128	
